Reference: PubChem BioAssay AID1259407 (Chemical Carcinogenesis Research Information System (CCRIS), 2018)
The source made the active and inactive calls. No rule for the calls is given here.

System: CCRIS mutagenicity, Ames/micronucleus/aberration tests
Assay: CCRIS mutagenicity studies
[1] = Test System: AMES SALMONELLA TYPHIMURIUM, Strain/Indicator: TA98, Metabolic Activation: NONE, Method: PREINCUBATION
[2] = Test System: AMES SALMONELLA TYPHIMURIUM, Strain/Indicator: TA100, Metabolic Activation: NONE, Method: PREINCUBATION
[3] = Test System: AMES SALMONELLA TYPHIMURIUM, Strain/Indicator: TA98, Metabolic Activation: RAT, LIVER, S-9, AROCLOR 1254, Method: STANDARD PLATE
[4] = Test System: AMES SALMONELLA TYPHIMURIUM, Strain/Indicator: TA98, Metabolic Activation: NONE, Method: STANDARD PLATE
[5] = Test System: AMES SALMONELLA TYPHIMURIUM, Strain/Indicator: TA100, Metabolic Activation: NONE, Method: STANDARD PLATE

SMILES: CCOc1cccc(N)c1
- mutagenic call (Test System: AMES SALMONELLA TYPHIMURIUM, Strain/Indicator: TA97, Metabolic Activation: HAMSTER, LIVER, S-9, AROCLOR 1254 (30%), Method: PREINCUBATION): inactive; negative
- mutagenic call (Test System: AMES SALMONELLA TYPHIMURIUM, Strain/Indicator: TA98, Metabolic Activation: HAMSTER, LIVER, S-9, AROCLOR 1254 (5 OR 10%), Method: PREINCUBATION): inactive; negative
- mutagenic call (Test System: AMES SALMONELLA TYPHIMURIUM, Strain/Indicator: TA98, Metabolic Activation: HAMSTER, LIVER, S-9, AROCLOR 1254 (30%), Method: PREINCUBATION): inactive; negative
- mutagenic call [1]: inactive; negative
- mutagenic call (Test System: AMES SALMONELLA TYPHIMURIUM, Strain/Indicator: TA98, Metabolic Activation: RAT, LIVER, S-9, AROCLOR 1254 (5 OR 10%), Method: PREINCUBATION): inactive; negative
- mutagenic call (Test System: AMES SALMONELLA TYPHIMURIUM, Strain/Indicator: TA98, Metabolic Activation: RAT, LIVER, S-9, AROCLOR 1254 (30%), Method: PREINCUBATION): inactive; negative
- mutagenic call (Test System: AMES SALMONELLA TYPHIMURIUM, Strain/Indicator: TA100, Metabolic Activation: HAMSTER, LIVER, S-9, AROCLOR 1254 (5, 10 OR 30%), Method: PREINCUBATION): inactive; negative
- mutagenic call [2]: inactive; negative
- mutagenic call (Test System: AMES SALMONELLA TYPHIMURIUM, Strain/Indicator: TA100, Metabolic Activation: RAT, LIVER, S-9, AROCLOR 1254 (5, 10 OR 30%), Method: PREINCUBATION): inactive; negative
- mutagenic call (Test System: AMES SALMONELLA TYPHIMURIUM, Strain/Indicator: TA1535, Metabolic Activation: HAMSTER, LIVER, S-9, AROCLOR 1254 (5, 10 OR 30%), Method: PREINCUBATION): inactive; negative
- mutagenic call (Test System: AMES SALMONELLA TYPHIMURIUM, Strain/Indicator: TA1535, Metabolic Activation: RAT, LIVER, S-9, AROCLOR 1254 (5, 10 OR 30%), Method: PREINCUBATION): inactive; negative

SMILES: O=[N+]([O-])c1cccc(Br)c1
- mutagenic call [1]: inactive; negative
- mutagenic call (Test System: AMES SALMONELLA TYPHIMURIUM, Strain/Indicator: TA98, Metabolic Activation: RAT, LIVER, S-9, KANECHLOR 500, Method: PREINCUBATION): inactive; negative
- mutagenic call (Test System: AMES SALMONELLA TYPHIMURIUM, Strain/Indicator: TA100, Metabolic Activation: RAT, LIVER, S-9, KANECHLOR 500, Method: PREINCUBATION): active; positive

SMILES: c1ccoc1
- mutagenic call (End Point: In vitro micronucleus, Test System: Human lymphocytes, Metabolic Activation: None): inactive; negative
- mutagenic call (End Point: In vitro micronucleus, Test System: Human lymphocytes, Metabolic Activation: Rat, liver, S-9, Aroclor 1254): inactive; negative
- mutagenic call (End Point: In vitro micronucleus, Test System: Mouse lymphoma L5178Y cells, Metabolic Activation: None): inactive; negative
- mutagenic call (End Point: In vivo micronucleus, Test System: Peripheral blood erythrocytes, Species: Mouse, Strain/Sex: Balb/C/Male, Route: Intraperitoneal): inactive; negative
- mutagenic call (End Point: In vivo micronucleus, Test System: Peripheral blood erythrocytes, Species: Mouse, Strain/Sex: Balb/C/Male, Route: Subcutaneous): inactive; negative
- mutagenic call (Test System: AMES SALMONELLA TYPHIMURIUM, Strain/Indicator: TA98, Metabolic Activation: HAMSTER, LIVER, S-9, AROCLOR 1254 (10%), Method: PREINCUBATION): inactive; negative
- mutagenic call [1]: inactive; negative
- mutagenic call (Test System: AMES SALMONELLA TYPHIMURIUM, Strain/Indicator: TA98, Metabolic Activation: RAT, LIVER, S-9, AROCLOR 1254 (10%), Method: PREINCUBATION): inactive; negative
- mutagenic call [3]: inactive; negative
- mutagenic call (Test System: AMES SALMONELLA TYPHIMURIUM, Strain/Indicator: TA98, Metabolic Activation: S-9, Method: STANDARD PLATE): active; positive
- mutagenic call (Test System: AMES SALMONELLA TYPHIMURIUM, Strain/Indicator: TA100, Metabolic Activation: HAMSTER, LIVER, S-9, AROCLOR 1254 (10%), Method: PREINCUBATION): inactive; negative
- mutagenic call [2]: inactive; negative
- mutagenic call (Test System: AMES SALMONELLA TYPHIMURIUM, Strain/Indicator: TA100, Metabolic Activation: RAT, LIVER, S-9, AROCLOR 1254 (10%), Method: PREINCUBATION): inactive; negative
- mutagenic call (Test System: AMES SALMONELLA TYPHIMURIUM, Strain/Indicator: TA100, Metabolic Activation: S-9, Method: STANDARD PLATE): inactive; negative
- mutagenic call (Test System: AMES SALMONELLA TYPHIMURIUM, Strain/Indicator: TA1535, Metabolic Activation: HAMSTER, LIVER, S-9, AROCLOR 1254 (10%), Method: PREINCUBATION): inactive; negative
- mutagenic call (Test System: AMES SALMONELLA TYPHIMURIUM, Strain/Indicator: TA1535, Metabolic Activation: NONE, Method: PREINCUBATION): inactive; negative
- mutagenic call (Test System: AMES SALMONELLA TYPHIMURIUM, Strain/Indicator: TA1535, Metabolic Activation: RAT, LIVER, S-9, AROCLOR 1254 (10%), Method: PREINCUBATION): inactive; negative
- mutagenic call (Test System: AMES SALMONELLA TYPHIMURIUM, Strain/Indicator: TA1537, Metabolic Activation: HAMSTER, LIVER, S-9, AROCLOR 1254 (10%), Method: PREINCUBATION): inactive; negative
- mutagenic call (Test System: AMES SALMONELLA TYPHIMURIUM, Strain/Indicator: TA1537, Metabolic Activation: NONE, Method: PREINCUBATION): inactive; negative
- mutagenic call (Test System: AMES SALMONELLA TYPHIMURIUM, Strain/Indicator: TA1537, Metabolic Activation: RAT, LIVER, S-9, AROCLOR 1254 (10%), Method: PREINCUBATION): inactive; negative
- mutagenic call (Test System: Mouse lymphoma, Strain/Indicator: L5178Y (tk+/tk-), Metabolic Activation: None, Method: Preincubation): inactive; negative

SMILES: CCCCB(CCCC)CCCC
- mutagenic call (Test System: AMES SALMONELLA TYPHIMURIUM, Strain/Indicator: TA98, Metabolic Activation: HAMSTER, LIVER, S-9, AROCLOR 1254, Method: STANDARD PLATE): active; positive
- mutagenic call [3]: active; positive
- mutagenic call (Test System: AMES SALMONELLA TYPHIMURIUM, Strain/Indicator: TA100, Metabolic Activation: HAMSTER, LIVER, S-9, AROCLOR 1254, Method: STANDARD PLATE): active; positive
- mutagenic call (Test System: MOUSE LYMPHOMA, Strain/Indicator: L5178Y (TK+/TK-), Metabolic Activation: NONE, Method: SUSPENSION/PLATE): inactive; negative. reevaluation of results: negative
- mutagenic call (Test System: MOUSE LYMPHOMA, Strain/Indicator: L5178Y (TK+/TK-), Metabolic Activation: RAT, LIVER, S-9, AROCLOR 1254, Method: SUSPENSION/PLATE): inactive; negative. reevaluation of results: negative

SMILES: [Br][Pb][Br]
- mutagenic call (Test System: AMES SALMONELLA TYPHIMURIUM, Strain/Indicator: TA1535, Metabolic Activation: NONE): active; positive
- mutagenic call (Test System: AMES SALMONELLA TYPHIMURIUM, Strain/Indicator: TA1537, Metabolic Activation: NONE): inactive; negative

SMILES: O=[C]/C=C\C(=O)CC(=O)CC(=O)O
- mutagenic call (Test System: CHINESE HAMSTER V-79, Strain/Indicator: V-79 (HGPRT)/6-THIOGUANINE, Metabolic Activation: NONE): inactive; negative

SMILES: N=c1c2ncn(C(c3ccccc3)c3ccccc3)c2ncn1O
- mutagenic call (Test System: AMES SALMONELLA TYPHIMURIUM, Strain/Indicator: TA97, Metabolic Activation: NONE, Method: STANDARD PLATE): inactive; negative
- mutagenic call (Test System: AMES SALMONELLA TYPHIMURIUM, Strain/Indicator: TA97, Metabolic Activation: RAT, LIVER, S-9, AROCLOR 1254, Method: STANDARD PLATE): inactive; negative
- mutagenic call [4]: inactive; negative
- mutagenic call [3]: active; positive
- mutagenic call [5]: inactive; negative
- mutagenic call (Test System: AMES SALMONELLA TYPHIMURIUM, Strain/Indicator: TA100, Metabolic Activation: RAT, LIVER, S-9, AROCLOR 1254, Method: STANDARD PLATE): inactive; negative

SMILES: Cc1ccc(C2CO2)cc1 (centres undefined)
- mutagenic call (Test System: E. COLI, Strain/Indicator: WP2 UVRA, Metabolic Activation: NONE, Method: STANDARD PLATE): active; positive

SMILES: OCc1ccc(Cl)cc1
- mutagenic call [5]: inactive; negative

SMILES: CNc1ccc2nc(C)c(C)nc2c1C
- mutagenic call [1]: inactive; negative
- mutagenic call (Test System: AMES SALMONELLA TYPHIMURIUM, Strain/Indicator: TA98, Metabolic Activation: RAT, LIVER, S-9, PCB, Method: PREINCUBATION): active; positive
- mutagenic call [2]: inactive; negative
- mutagenic call (Test System: AMES SALMONELLA TYPHIMURIUM, Strain/Indicator: TA100, Metabolic Activation: RAT, LIVER, S-9, PCB, Method: PREINCUBATION): active; positive

SMILES: CO[C@@H]1[C@H](O)C[C@@H](O[C@@H]2C[C@H](Oc3cc4cc5c(c(O)c4c(O)c3C)C(=O)[C@@H](O[C@H]3C[C@@H](O[C@H]4C[C@@H](O[C@H]6C[C@](C)(O)[C@@H](OC(C)=O)[C@H](C)O6)[C@H](O)[C@@H](C)O4)[C@H](O)[C@@H](C)O3)[C@H]([C@H](OC)C(=O)[C@@H](O)[C@@H](C)O)C5)O[C@H](C)[C@@H]2OC(C)=O)O[C@@H]1C
- mutagenic call [4]: inactive; negative
- mutagenic call [5]: inactive; negative
- mutagenic call (Test System: CHINESE HAMSTER OVARY, Strain/Indicator: CHO (HGPRT)/6-THIOGUANINE, Metabolic Activation: NONE, Method: PREINCUBATION): active; positive
- mutagenic call (Test System: E. COLI, Strain/Indicator: WP2 (HCR), Metabolic Activation: NONE, Method: STANDARD PLATE): inactive; negative
